Experimental findings from ChEMBL document CHEMBL1821549, “Phylogeny-guided isolation of ethyl tumonoate A from the marine cyanobacterium cf. Oscillatoria margaritifera” (J Nat Prod, 2011) are described below.

Active and inactive are the calls of the source. The calls are words filed in the database; no cut-off is given here.

The species entered for one data set is Mus musculus. The experiment in a line: Inhibition of calcium (Ca2+) oscillations in Swiss-Webster mouse neocortical neurons at 10 uM by Fluo-3 dye based fluorimetric assay. The format is functional.
In data set [1] the test system is RAW264.7. The experiment in a line: Cytotoxicity against mouse RAW264.7 cells after 48 hrs by MTT assay. The note with it: raw264.7, 48 h. The format is cell-based.
The test system of the next data set is NCI-H460. Kind of data set: Cytotoxicity against human H460 cells at =>10 ug/mL. The format is cell-based.
For data set [2], the system named is RAW264.7. The experiment in a line: Antiinflammatory activity in mouse RAW264.7 cells assessed as inhibition of LPS-induced nitric oxide production incubated for 24 hrs by Griess method. The note with it: RAW264.7, 24 h. The format is functional, cell-based.

Regarding `CCCCCCC/C=C(\C)[C@@H](O)[C@@H](C)C(=O)N1CCC[C@H]1C(=O)O`, the inhibition result in the data set filed under Mus musculus is “Active”.

Consider `CCCCCCCC[C@H](C)C(=O)N1CCC[C@H]1C(=O)O[C@@H](C(=O)O[C@@H](C)C(=O)O)[C@@H](C)CC`, for which the inhibition entry in the data set filed under Mus musculus was “inactive”.

Turning to `CCCCCCC/C=C(\C)[C@@H](O)[C@@H](C)C(=O)N1CCC[C@H]1C(=O)OCC` [ETHYL TUMONOATE A], the Activity result in the data set on RAW264.7 [1] and in the data set with NCI-H460 was “Non-toxic” in each case. For the same compound, the inhibition entry in the data set filed under Mus musculus was “Active”. Moreover, the IC50 in the data set with RAW264.7 [2] is 9.8 µM.

As to `CCCCCCCCC(C)[C@H](OC(C)=O)[C@H](C)C(=O)N1CCC[C@H]1C(=O)O` (some centres not stated), the inhibition result in the data set listed under Mus musculus is “Active”.
